These results are taken from patent publication US7345091B2, “Carotenoid ether analogs or derivatives for the inhibition and amelioration of disease” (Cardax Pharmaceuticals, Inc., priority 2002, dated 2008).

The conditions of data set [1]: for behavior as radical quencher compared with non-esterified, free astaxanthin: formation of carotenoid radical cation. The text has this: FIG. 27 and FIG. 28 depict the results of spectral analysis after flash photolysis of the formation of triplet and carotenoid cation radical states for non-esterified, free astaxanthin 2E and the diacid disuccinate astaxanthin derivative XV were obtained. Formation of the carotenoid cation radical is a measure of the potential biophysical behavior of the novel derivative as an antioxidant. If a derivative retains the antioxidant behavior of non-esterified, free astaxanthin, then all previously documented (i.e. literature precedent) therapeutic applications for astaxanthin can be reasonably assumed for the novel derivative, including at least singlet oxygen quenching, lipid peroxidation chain-breaking, and/or direct radical scavenging.
In this experiment, nitronaftalin (NN) was used as the photosensitizer. After irradiation, the excited sensitizer (NN*) forms a sensitizer triplet (^3NN). When ^3NN encounters a carotenoid, energy and electron transfer reactions with ^3NN take place. The resulting relatively stable ^3car and carotenoid cation radicals (car*^+) are detected by characteristic absorption bands. Non-polar solvents (e.g. hexane) favor the formation of ^3car, and more polar solvents (alcohols, water) favor the formation of the car.^+. The anion radical of the sensitizer (NN.^−) is not typically seen because of a low absorption coefficient.
The ^3car decays rather quickly. After 15 μs, half of the ^3car has disappeared, and after 50 μs, no ^3car is left.
The spectrum of asta 2E is nearly identical to that of astaCOOH XV. After 50 μs, the ^3car has disappeared. During this time frame, the car.^+ is stable. Negative and positive peaks in the absorption spectra for astaCOOH XV and asta 2E are superimposable.

Data set [2] is described as follows: Determination of water solubility. Format: physicochemical. The procedure: A total of 30 mg of sample (disodium disuccinate astaxanthin derivative, as the all-trans mixture of stereoisomers 3S,3′S, meso, and 3R,3′R in a 1:2:1 ratio) was added to 2 mL of sterile-filtered ([…] Millipore®) deionized (DI) water in a 15 mL glass centrifuge tube. The tube was wrapped in aluminum foil and the mixture was shaken for 2 hours, then centrifuged at 3500 rpm for 10 minutes. The aqueous solution was filtered through a 0.45 micron PVDF disposable filter device. A 1 mL volume of filtrate was then diluted appropriately with DI water, and the concentration of the solution was measured at 480 nm using a four point calibration curve prepared from fresh sample.

The test system of the next data set is superoxide anion. In words: Superoxide anion scavenging by EPR (DEPMPO spin trap) in phorbol ester-stimulated isolated neutrophils. The data set is classed as cell-based, human. To be noted: for reduction of superoxide anion signal: aqueous; for Mean (% inhibition) of superoxide anion signal: 0.1 mM. The procedure: In an experiment, neutrophils were isolated on a Percoll gradient from whole blood from a human volunteer. The isolated neutrophils were then re-suspended in phosphate-buffered saline, and maximally stimulated with phorbol ester to induce the respiratory burst and production of superoxide anion. To the solution of activated human neutrophils, the disodium salt disuccinate astaxanthin derivative XVI was added at various concentrations, and the superoxide signal [as measured with electron paramagnetic resonance (EPR) spectroscopy] was subsequently measured. […] The disodium salt disuccinate astaxanthin derivative XVI tested at 100 μM scavenged 28% of the total signal. At 3 mM, almost no superoxide signal remained. […] In addition to reducing the superoxide anion signal important in ischemia-reperfusion injury, it is also likely that myocardial salvage can be achieved with the described carotenoid derivative, as superoxide anion plays a major role in tissue injury and death during prolonged myocardial ischemia. In a third experiment, neutrophils were again isolated on a Percoll gradient from whole blood from a second human volunteer. The isolated neutrophils were then re-suspended in phosphate-buffered saline, and maximally stimulated with phorbol ester to induce the respiratory burst and production of superoxide anion. […] Astaxanthin 2E was dissolved in HPLC grade dimethylsulfoxide (DMSO; Sigma-Aldrich, St. Louis, Mo.). The disodium disuccinate derivatives XVI of astaxanthin 2E were tested separately in […] formulations: statistical mixture of stereoisomers (as for astaxanthin, above, a 1:2:1 mixture of all-E; labeled as “mixture” in all tables and figures); 3S,3'S, and 3R,3'R (optical isomers or enantiomers); and meso (mixture of identical 3S,3'R and 3'S,3R; diastereomers of the enantiomeric pair). […] The disuccinate derivatives were first tested at the appropriate final concentrations in pure aqueous solution (deionized water) from stock solutions of 10 mM. Each of the four disuccinate derivatives were then tested from stock solutions prepared in a 1:2 mixture of ethanol (final concentration of EtOH in stock solution 331⁄3%; final concentration in isolated neutrophil assay 0.3%; HPLC grade ethanol, Sigma-Aldrich, St. Louis, Mo.) at 10 mM. […] Metaphore® Pharmaceuticals, Inc., St. Louis, Mo.) were also performed. Human polymorphonuclear leukocytes (PMNs) were isolated from freshly sampled venous blood of a single volunteer by Percoll density gradient centrifugation, which yielded PMNs with a purity of >95%. Each 10 mL of whole blood was mixed with 0.8 mL of 0.1 M EDTA and 25 mL of saline. The diluted blood was layered over 9 mL of Percoll at a specific density of 1.080 g/mL. After centrifugation at 400×g for 20 min at 20° C., the plasma, mononuclear cell, and Percoll layers were removed. Erythrocytes were lysed by addition of 18 mL of ice-cold water for 30 s, followed by 2 mL of 10× PIPES buffer (25 mM PIPES, 110 mM NaCl, and 5 mM KCl, titrated to pH 7.4 with NaOH). Cells were pelleted at 4° C., the supernatant was decanted, and the procedure was repeated. After the second hypotonic lysis, cells were washed twice with PAG buffer (PIPES buffer containing 0.003% human serum albumin and 0.1% glucose). Afterward, PMNs were counted by light microscopy on a hemocytometer. The final pellet was then suspended in PAG-CM buffer (PAG buffer with 1 mM CaCl2 and 1 mM MgCl2). All EPR measurements were performed using a Bruker ER 300 EPR spectrometer operating at X-band with a TM110 cavity. The microwave frequency was measured with a Model 575 microwave counter (EIP Microwave, Inc., San Jose, Calif.). To measure O^ -2 generation from phorbol-ester (PMA)-stimulated PMNs, EPR spin-trapping studies were performed using DEPMPO (Oxis, Portland, Oreg.) at 10 mM. 1×10^6 PMNs were stimulated with PMA (1 ng/mL) and loaded into capillary tubes for EPR measurements. […]

The next data set concerns Cx43 protein. Nature of the data set: Cx43 protein expression by stereoisomer forms (immuno-(Western) blotting, 4 days). Format: cell-based, mouse. To be noted: 1×10^-5 M in 1:2 ethanol/H2O, four days; vs 1:2 ethanol/H2O alone. The procedure:
(2) Molecular Studies. […] Briefly, mouse embryonic fibroblast C3H10T1/2 cells were cultured in Eagle's basal medium with Earle's salts (Atlanta Biologicals, Atlanta, Ga.), supplemented with 5% fetal calf serum (Atlanta Biologicals, Atlanta, Ga.) and 25 μg/mL gentamicin sulfate (Sigma, St. Louis, Mo.), and incubated at 37° C. in 5% CO2. On the 7th day after seeding in 100 millimeter (mm) dishes, the confluent cells were treated for four days with the disodium salt disuccinate astaxanthin derivatives XVI and then harvested and analyzed for Cx43 protein induction as described. Protein content was measured using the Protein Assay Reagent kit (Pierce Chemical Co., Rockford, Ill.) according to manufacturer's instructions. Cell lysates containing 100 μg of protein were analyzed by Western blotting using the NuPage western blotting kit and apparatus (Invitrogen, Carlsbad, Calif.) and Cx43 protein detected using a rabbit polyclonal antibody (Zymed, San Francisco, Calif.) raised against a synthetic polypeptide corresponding to the C-terminal domain of mouse, human and rat Cx43. Cx43 immunoreactive bands were visualized by chemiluminescence using an anti-rabbit HRP-conjugated secondary antibody (Pierce Chemical Co., Rockford, Ill.). Digital images were obtained with a cooled CCD camera, and quantitative densitometry was then performed (Bio-Rad, Richmond, Calif.).

Data set [3] concerns the target human serum albumin (HSA) (Homo sapiens, UniProt P02768).
Description: For spectroscopic sample preparation, HSA was dissolved in pH 7.4 Ringer or 0.1 M pH 7.4 phosphate buffer solutions. Albumin concentration was calculated with the value of E1cm^1%=5.31, using experimentally obtained absorbance data at 279 nm. The molecular weight of HSA was defined as 66500 Da.
CD and UV spectra were recorded on a Jasco J-715 spectropolarimeter at 25±0.2 and 37±0.2° C. in a rectangular cuvette with 1 cm pathlength. Temperature control was provided by a Peltier thermostat equipped with magnetic stirring. All spectra were accumulated three times with a bandwidth of 1.0 nm and a resolution of 0.5 nm at a scan speed of 100 nm/min. Induced CD was defined as the CD of the dAST XVI-HSA mixture minus the CD of HSA alone at the same wavelengths, and is expressed as ellipticity in millidegrees (mdeg).
Ringer buffer, I/P values from 0.007 to 0.10: 2 mL of 1.6×10^−4 M HSA solution was placed in the cuvette with 1 cm optical pathlength and small amounts of the ligand stock solution (c=2.2×10^−4) were added with an automatic pipette in 10 μL aliquots. Ringer buffer, L/P values from 0.82 to 13.13: 2 ml of 2.3×10^−6 M HSA solution was placed in the cuvette with 1 cm optical pathlength and μL volumes of the ligand stock solution (c=3.9×10^−4) were added with an automatic pipette. Phosphate buffer, L/P values from 0.82 to 13.10: 2 mL of 2.2×10^−6 M HSA solution was placed in the cuvette with 1 cm optical pathlength and μL volumes of the ligand stock solution (c=3.6×10^−4) were added with an automatic pipette.
2 mL of 4.2×10^−6 M HSA solution was prepared in a 1 cm rectangular cell in 0.1 M pH 7.4 phosphate buffer. […] Total fluorescence intensity was collected at each wavelength with a Hamamatsu H5784-type photomultiplier detector mounted on a right angle to the light source. […] A control experiment was also performed, in which the fluorescence of HSA during addition of 20, 50 and 100 μL DMSO to the solution was measured.

The structures appear in SMILES notation. Read-outs that look alike come from different tables or passages of the source. A value given as a limit tells only on which side of the number the result lay.

Chain of human serum albumin (HSA) (P02768 25-609): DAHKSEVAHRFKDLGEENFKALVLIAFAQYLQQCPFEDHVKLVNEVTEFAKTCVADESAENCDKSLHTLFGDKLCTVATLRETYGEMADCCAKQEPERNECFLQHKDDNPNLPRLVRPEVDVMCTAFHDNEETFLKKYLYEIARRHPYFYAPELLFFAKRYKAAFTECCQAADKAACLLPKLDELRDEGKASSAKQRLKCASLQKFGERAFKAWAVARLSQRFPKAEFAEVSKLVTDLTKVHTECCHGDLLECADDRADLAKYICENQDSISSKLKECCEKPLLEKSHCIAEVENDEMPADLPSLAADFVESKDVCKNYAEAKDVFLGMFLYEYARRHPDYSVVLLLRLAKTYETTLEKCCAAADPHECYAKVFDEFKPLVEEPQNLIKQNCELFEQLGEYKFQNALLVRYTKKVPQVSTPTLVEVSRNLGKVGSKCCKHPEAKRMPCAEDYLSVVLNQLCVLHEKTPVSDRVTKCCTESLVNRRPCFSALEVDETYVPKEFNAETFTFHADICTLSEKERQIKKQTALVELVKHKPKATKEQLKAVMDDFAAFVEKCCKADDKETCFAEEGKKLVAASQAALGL

For `CC1=C(/C=C/C(C)=C/C=C/C(C)=C/C=C/C=C(C)/C=C/C=C(C)/C=C/C2=C(C)C(=O)C(OC(=O)CCC(=O)O)CC2(C)C)C(C)(C)CC(OC(=O)CCC(=O)O)C1=O` (stereo not drawn) [XV, Succinic Acid mono-(4-{18-[4-(3-carboxy-propionyloxy)-2,6,6-trimethyl-3-oxo-cyclohex-1-enyl]-3,7,12,16-tetramethyl-octadeca-1,3,5,7,9,11,13,15,17-nonaenyl}-3,5,5-trimethyl-2-oxo-cyclohex-3-enyl) ester], the “stability of the carotenoid cation radical (car.+)” value in data set [1] is recorded as “stable within this time frame”. For the same molecule, in data set [1] (acetonitrile, sensitizer NN), the “time after which half of the 3car (carotenoid triplet) has disappeared” value is 15 μs; the “time after which no 3car (carotenoid triplet) is left” value came to 50 μs; the “behavior as radical quencher compared with non-esterified, free astaxanthin” value is recorded as “behaves like asta 2E”. The “behavior as radical quencher compared with non-esterified, free astaxanthin” value in data set [1] (acetonitrile, sensitizer NN, listed as astaCOOH) is “identically to non-esterified, free racemic astaxanthin”.

`CC(C=CC=C(C)C=CC1=C(C)C(=O)C(OC(=O)CCC(=O)OCC(O)C2OC(=O)C(O)=C2O)CC1(C)C)=CC=CC=C(C)C=CC=C(C)C=CC1=C(C)C(=O)C(OC(=O)CCC(=O)OCC(O)C2OC(=O)C(O)=C2O)CC1(C)C` (stereo not drawn) [XXIII, Succinic acid 4-[18-(4-{3-[2-(3,4-dihydroxy-5-oxo-2,5-dihydrofuran-2-yl)-2-hydroxy-ethoxycarbonyl]-propionyloxy}-2,6,6-trimethyl-2-oxo-cyclohex-1-enyl)-3,7,12,16-tetramethyl-octadeca-1,3,5,7,9,11,13,15,17-nonaenyl]-3,5,5-trimethyl-2-oxo-cyclohex-3-enyl ester 2-(3,4-dihydroxy-5-oxo-2,5-dihydrofuran-2-yl)-2-hydroxy-ethyl ester]: the water solubility result in data set [2] was “highly water soluble”. Moreover, the “increase in radical scavenging potency over the disodium disuccinate astaxanthin derivative (XVI)” value in the data set with superoxide anion is 50 fold. The “inhibition of superoxide anion signal” value with superoxide anion (60 μM, without a co-solvent) is “nearly complete inhibition”. Also, the “concentration at which complete suppression of the superoxide anion signal was achieved” value in the data set with superoxide anion (activated human neutrophils, EPR) was found to be 60 µM.

The solubility is how much of the substance goes into solution per volume. Take `CC1=C(/C=C/C(C)=C/C=C/C(C)=C/C=C/C=C(C)/C=C/C=C(C)/C=C/C2=C(C)C(=O)C(OC(=O)C(N)CCCCN)CC2(C)C)C(C)(C)CC(OC(=O)C(N)CCCCN)C1=O.Cl.Cl.Cl` (stereo not drawn) [XX, Tetrahydrochloride Salt of the Dilysinate Ester of Astaxanthin]: the solubility at 2 h in data set [2] (deionized water, water, thermodynamic from solid, pure aqueous formulation) was > 50 mg/mL. Besides, the “reduction of superoxide anion signal” value in the data set with superoxide anion (1 μM) is recorded as “approximately 5%”; in the data set on superoxide anion (3 mM), 98%.

`CC1=C(/C=C/C(C)=C/C=C/C(C)=C/C=C/C=C(C)/C=C/C=C(C)/C=C/C2=C(C)C(=O)[C@H](OC(=O)CCC(=O)[O-])CC2(C)C)C(C)(C)C[C@H](OC(=O)CCC(=O)[O-])C1=O.[Na+].[Na+]` [Meso, disodium salt disuccinate derivative XVI (dAST) of synthetic meso-astaxanthin (3R,3′S-dihydroxy-β,β-carotene-4,4′-dione)]: the “expression of Cx43 protein” value in the data set with Cx43 protein is “increase expression of Cx43 protein”. The “Mean (% inhibition) of superoxide anion signal” value turned out to be 42.5% in the data set with superoxide anion (Solvent EtOH (1:2 EtOH/water stock, 0.3% final)) and 15.7% in the data set with superoxide anion (Solvent Water). For the same molecule, in data set [3] (0.1 M pH 7.4 phosphate buffer, 37° C.), the “quenching of the intrinsic fluorescence of HSA” value is recorded as “able to effectively quench the intrinsic fluorescence of HSA”. Also, the “decrease of baseline fluorescence intensity of HSA” value in data set [3] (L/P ratio of 0.7, 0.1 M pH 7.4 phosphate buffer, 37° C.) came to 50%. Moreover, in data set [3] (low ligand/protein molar ratios, pH 7.4 Ringer buffer), the “mode of binding to HSA” value was “monomeric form”.
